Values of other authors in patent US20120074308A1, “IMMUNOSUPPRESSANT MONITORING BY MALDI MASS SPECTROMETRY” (priority 2010, published 2012).

Conditions: for therapeutic window: immunosuppressants currently used for transplant patients, level in blood; for narrow therapeutic range: levels in whole blood

| narrow therapeutic range [ng/mL] | Compound | increased levels associated with high toxicity (thrombocytopenia, hyperlipidemia, high serum creatinine levels) (blood level) | therapeutic window [ng/mL] |
| --- | --- | --- | --- |
| 4 to 12 | CO[C@H]1C[C@@H]2CC[C@@H](C)[C@@](O)(O2)C(=O)C(=O)N2CCCC[C@H]2C(=O)O[C@H]([C@H](C)C[C@@H]2CC[C@@H](O)[C@H](OC)C2)CC(=O)[C@H](C)/C=C(\C)[C@@H](O)[C@@H](OC)C(=O)[C@H](C)C[C@H](C)/C=C/C=C/C=C/1C [Sirolimus] | above 15 nanogram per milliliter | 4 to 12 |
| 3 to 8 | CO[C@H]1C[C@@H]2CC[C@@H](C)[C@@](O)(O2)C(=O)C(=O)N2CCCC[C@H]2C(=O)O[C@H]([C@H](C)C[C@@H]2CC[C@@H](OCCO)[C@H](OC)C2)CC(=O)[C@H](C)/C=C(\C)[C@@H](O)[C@@H](OC)C(=O)[C@H](C)C[C@H](C)/C=C/C=C/C=C/1C [Everolimus] |  | 3 to 8 |
| 4 to 20 | C=CC[C@@H]1/C=C(\C)C[C@H](C)C[C@H](OC)[C@H]2O[C@@](O)(C(=O)C(=O)N3CCCC[C@H]3C(=O)O[C@H](/C(C)=C/[C@@H]3CC[C@@H](O)[C@H](OC)C3)[C@H](C)[C@@H](O)CC1=O)[C@H](C)C[C@@H]2OC [Tacrolimus] |  | 4 to 20 |
